In patent US20260285850A1, “SUBSTITUTED OXAZOLIDINONES AND IMIDAZOLINONES AS HERBICIDES” (FMC CORPORATION, priority 2023, published 2026):

How the values were obtained:
Assay type in all cases: in vivo
[1] = test system: barnyardgrass (Echinochloa crus-galli); assay: Test A preemergence soil spray, visual injury rating 0-100; conditions: 10 days
Procedure, shortened: (§1)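 Seeds sown in loam-sand blend got a preemergence directed soil spray, or emerged plants (2-10 cm, one- to two-leaf) got a postemergence spray, of compound in non-phytotoxic solvent with surfactant. After 10 days in greenhouse, injury rated visually versus untreated controls on a 0 (no effect) to 100 (complete control) scale.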

[2] = test system: blackgrass (Alopecurus myosuroides); assay: as above; conditions: 10 days
Procedure, shortened: as §1

[3] = test system: corn (Zea mays); assay: as above; conditions: 16 g ai/ha, 0 to 100 scale, 10 days
Procedure, shortened: as §1

[4] = test system: green foxtail (Setaria viridis); assay: as above; conditions: 10 days
Procedure, shortened: as §1

[5] = test system: kochia (Bassia scoparia); assay: as above; conditions: 10 days
Procedure, shortened: as §1

[6] = test system: oat, wild (wild oat, Avena fatua); assay: as above; conditions: 10 days
Procedure, shortened: as §1

[7] = test system: palmer (palmer amaranth, palmer pigweed, Amaranthus palmeri); assay: as above; conditions: 62 g ai/ha, 10 days, 0 = no effect, 100 = complete control
Procedure, shortened: as §1

[8] = test system: ragweed (common ragweed, Ambrosia artemisiifolia); assay: as above; conditions: 10 days
Procedure, shortened: as §1

[9] = test system: ryegrass, Italian (italian ryegrass, Lolium multiflorum); assay: as above; conditions: 10 days
Procedure, shortened: as §1

[10] = test system: soybean (Glycine max); assay: as above; conditions: 10 days
Procedure, shortened: as §1

[11] = test system: wheat (Triticum aestivum); assay: as above; conditions: 10 days
Procedure, shortened: as §1

[12] = test system: barnyardgrass (Echinochloa crus-galli); assay: Test A postemergence application, visual injury rating 0-100
Procedure, shortened: as §1

[13] = test system: blackgrass (Alopecurus myosuroides); assay: as above
Procedure, shortened: as §1

[14] = test system: corn (Zea mays); assay: as above
Procedure, shortened: as §1

[15] = test system: galium (catchweed bedstraw, Galium aparine); assay: as above
Procedure, shortened: as §1

[16] = test system: green foxtail (Setaria viridis); assay: as above
Procedure, shortened: as §1

[17] = test system: horseweed (Erigeron canadensis); assay: as above
Procedure, shortened: as §1

[18] = test system: kochia (Bassia scoparia); assay: as above
Procedure, shortened: as §1

[19] = test system: oat, wild (wild oat, Avena fatua); assay: as above
Procedure, shortened: as §1

[20] = test system: palmer (palmer amaranth, palmer pigweed, Amaranthus palmeri); assay: as above
Procedure, shortened: as §1

[21] = test system: ragweed (common ragweed, Ambrosia artemisiifolia); assay: as above
Procedure, shortened: as §1

[22] = test system: ryegrass, Italian (italian ryegrass, Lolium multiflorum); assay: as above
Procedure, shortened: as §1

[23] = test system: soybean (Glycine max); assay: as above
Procedure, shortened: as §1

[24] = test system: wheat (Triticum aestivum); assay: as above
Procedure, shortened: as §1

[25] = test system: barnyardgrass (Echinochloa crusgalli); assay: Test B flooded paddy test, visual plant response rating 0-100; conditions: 250 g ai/ha, Flood, applied to paddy water, evaluated after 13 days
Procedure, shortened: (§2)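 2-leaf plants; flood 3 cm over soil; compound dosed into paddy water; depth kept constant; greenhouse 13 d; visual scoring vs controls. Dash = no result.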

[26] = test system: ducksalad (Heteranthera limosa); assay: as above; conditions: 250 g ai/ha, Flood, applied to paddy water, evaluated after 13 days
Procedure, shortened: as §2

[27] = test system: rice (Oryza sativa); assay: as above; conditions: 250 g ai/ha, Flood, applied to paddy water, evaluated after 13 days
Procedure, shortened: as §2

[28] = test system: sedge, umbrella (small-flower umbrella sedge, Cyperus difformis); assay: as above; conditions: 250 g ai/ha, Flood, applied to paddy water, evaluated after 13 days
Procedure, shortened: as §2

[29] = 62 g ai/ha, 0 = no effect, 100 = complete control
[30] = 62 g ai/ha, postemergence, 10 days, 0 = no effect, 100 = complete control
[31] = Postemergence, 16 g ai/ha, greenhouse 10 days, 0 no effect, 100 complete control

CCOC(=O)C1=CCC(NC(=O)C2(C)CN(c3cc(F)cc(Cl)c3)C(=O)O2)C1 (centres unmarked) [Compound 133]
Barnyardgrass plant response rating ([1]; 16 g ai/ha, 0 to 100 scale): 0
Barnyardgrass plant response rating (0-100) [1, 29]: 80
Blackgrass plant response rating ([2]; 16 g ai/ha, 0 to 100 scale): 0
Blackgrass plant response rating (0-100) [2, 29]: 20
Corn plant response rating [3]: 0
Foxtail, Green plant response rating ([4]; 16 g ai/ha, 0 to 100 scale): 0
Foxtail, Green plant response rating (0-100) [4, 29]: 90
Kochia plant response rating ([5]; 16 g ai/ha, 0 to 100 scale): 0
Kochia plant response rating (0-100) [5, 29]: 20
Oat, Wild plant response rating ([6]; 16 g ai/ha, 0 to 100 scale): 0
Oat, Wild plant response rating (0-100) [6, 29]: 0
Pigweed, Palmer plant response rating (0-100) [7]: 90
Ragweed plant response rating ([8]; 16 g ai/ha, 0 to 100 scale): 0
Ragweed plant response rating (0-100) [8, 29]: 0
Ryegrass, Italian plant response rating ([9]; 16 g ai/ha, 0 to 100 scale): 10
Ryegrass, Italian plant response rating (0-100) [9, 29]: 80
Soybean plant response rating ([10]; 16 g ai/ha, 0 to 100 scale): 0
Soybean plant response rating (0-100) [10, 29]: 0
Wheat plant response rating ([11]; 16 g ai/ha, 0 to 100 scale): 0
Wheat plant response rating (0-100) [11, 29]: 90
Barnyardgrass plant response rating (0-100) [12, 30]: 100
Barnyardgrass plant response rating (0 to 100 scale) [12, 31]: 100
Blackgrass plant response rating (0-100) [13, 30]: 90
Blackgrass plant response rating (0 to 100 scale) [13, 31]: 70
Corn plant response rating (0-100) [14, 30]: 100
Corn plant response rating (0 to 100 scale) [14, 31]: 100
Galium plant response rating (0-100) [15, 30]: 70
Galium plant response rating (0 to 100 scale) [15, 31]: 60
Foxtail, Green plant response rating (0-100) [16, 30]: 90
Foxtail, Green plant response rating (0 to 100 scale) [16, 31]: 90
Horseweed plant response rating (0-100) [17, 30]: 80
Horseweed plant response rating (0 to 100 scale) [17, 31]: 0
Kochia plant response rating (0-100) [18, 30]: 90
Kochia plant response rating (0 to 100 scale) [18, 31]: 80
Oat, Wild plant response rating (0-100) [19, 30]: 70
Oat, Wild plant response rating (0 to 100 scale) [19, 31]: 40
Pigweed, Palmer plant response rating (0-100) [20, 30]: 90
Pigweed, Palmer plant response rating (0 to 100 scale) [20, 31]: 90
Ragweed plant response rating (0-100) [21, 30]: 70
Ragweed plant response rating (0 to 100 scale) [21, 31]: 30
Ryegrass, Italian plant response rating (0-100) [22, 30]: 90
Ryegrass, Italian plant response rating (0 to 100 scale) [22, 31]: 60
Soybean plant response rating (0-100) [23, 30]: 70
Soybean plant response rating (0 to 100 scale) [23, 31]: 60
Wheat plant response rating (0-100) [24, 30]: 90
Wheat plant response rating (0 to 100 scale) [24, 31]: 80
Plant response rating, Barnyardgrass (0 to 100 scale, 0 is no effect and 100 is complete control) [25]: 95
Plant response rating, Ducksalad (0 to 100 scale, 0 is no effect and 100 is complete control) [26]: 85
Plant response rating, Rice (0 to 100 scale, 0 is no effect and 100 is complete control) [27]: 85
Plant response rating, Sedge, Umbrella (0 to 100 scale, 0 is no effect and 100 is complete control) [28]: 98
